Assay results from US20240287028A1, “HERBICIDAL PHENYLURACILS” (BASF SE, priority 2021, published 2024).

Key:
Assay in all cases: greenhouse herbicidal test, post-emergence treatment
Type in all cases: in vivo
[1] = system: Digitaria insularis; conditions: scale 0 to 100
From the text: (§1) The culture containers used were plastic flowerpots containing loamy sand with approximately 3.0% of humus as the substrate. The seeds of the test plants were sown separately for each species.
(§2) For the pre-emergence treatment, the active ingredients, which had been suspended or emulsified in water, were applied directly after sowing by means of finely distributing nozzles. The containers were irrigated gently to promote germination and growth and subsequently covered with transparent plastic hoods until the test plants had rooted. This cover caused uniform germination of the test plants, unless this had been impaired by the active ingredients. For the post-emergence treatment, the test plants were first grown to a height of 3 to 15 cm, depending on the plant habit, and only then treated with the active ingredients which had been suspended or emulsified in water. For this purpose, the test plants were either sown directly and grown in the same containers, or they were first grown separately as seedlings and transplanted into the test containers a few days prior to treatment.
(§3) Depending on the species, the test plants were kept at 10-25° C. or 20-35° C., respectively. The test period extended over 2 to 3 weeks. During this time, the test plants were tended, and their response to the individual treatments was evaluated.
(§4) Evaluation was carried out using a scale from 0 to 100. 100 means no emergence of the test plants, or complete destruction of at least the aerial moieties, and 0 means no damage, or normal course of growth. A good herbicidal activity is given at values of at least 70 and a very good herbicidal activity is given at values of at least 85.

[2] = system: Erigeron canadensis; conditions: application rate 4 g/ha, scale 0 to 100
From the text: as §1, §2, §3, §4

[3] = system: Setaria faberi; conditions: scale 0 to 100
From the text: as §1, §2, §3, §4

Compound | damages, unwanted plants TRCIN ([1]; application rate 2 g/ha) | damages, unwanted plants TRCIN ([1]; application rate 4 g/ha) | damages, unwanted plants ERICA [2] | damages, unwanted plants SETFA ([3]; application rate 1 g/ha) | damages, unwanted plants SETFA ([3]; application rate 2 g/ha) | damages, unwanted plants SETFA ([3]; application rate 4 g/ha)
CCOC(=O)COc1ncccc1Oc1cc(-n2c(=O)cc(C(C)(F)F)n(C)c2=O)c(F)cc1Cl [Example 1.1, Ethyl 2-[[3-[2-chloro-5-[4-(1,1-difluoroethyl)-3-methyl-2,6-dioxo-pyrimidin-1-yl]-4-fluoro-phenoxy]-2-pyridyl]oxy]acetate] | 95 | 100 | 100 | 80 | 90 | 95
CCOC(=O)COc1ncccc1Oc1cc(-n2c(=O)cc(C(F)(F)F)n(C)c2=O)c(F)cc1Cl [cmpd I-2-8] | 90 | 90 | 65 | 70 | 85 | 90
